From patent US20030165954A1, “Cancer profiles” (Third Wave Technologies, Inc., priority 2002, published 2003)

Conditions: mouse, in vivo, iv

| Compound | plasma concentrations |
| --- | --- |
| CN(Cc1cnc2nc(N)nc(N)c2n1)c1ccc(C(=O)N[C@@H](CCC(=O)O)C(=O)O)cc1 [MTX, methotrexate] | did not reach the levels in nude mice that they do in patients receiving clinical doses |
| O=c1[nH]cc(F)c(=O)[nH]1 [5FU, 5-fluorouracil] | did not reach the levels in nude mice that they do in patients receiving clinical doses |
